This passage reports ring closure, product found and ring closure, conversion by HPLC results from PMC6208650.

The series in a line: on-resin lactamisation, Asp side-chain COOH (C-terminal residue, anchored via Rink amide) + alpha-NH2 of N-terminal Dap(Boc); HATU/DIEA 1.05:2.1 equiv, overnight; then TFA cleavage. The settings on record: NMP, 57.0 mM; for ring closure, product found: scale: 1 = cyclic product is largest ESI-MS signal, 0 = linear; for ring closure, conversion by HPLC: scale: % crude HPLC purity, 320 nm area of tallest peak or peak cluster.

Where [1] appears, read: from CC(C)(C)OC(=O)NC[C@H](N)C(=O)NCC(=O)N[C@@H](CNC(=O)c1cnc2ccccc2n1)C(=O)N[C@@H](CNC(=O)c1cnc2ccccc2n1)C(=O)NCC(=O)N[C@@H](CNC(=O)c1cnc2ccccc2n1)C(=O)N[C@@H](CC(=O)O)C(N)=O, 22-membered ring.
Where [2] appears, read: from CC(C)(C)OC(=O)NC[C@H](N)C(=O)NCC(=O)N[C@@H](CNC(=O)c1cnc2ccccc2n1)C(=O)N[C@@H](CNC(=O)c1cnc2ccccc2n1)C(=O)N[C@@H](CNC(=O)c1cnc2ccccc2n1)C(=O)NCC(=O)N[C@@H](CC(=O)O)C(N)=O, 22-membered ring.
The mark [3] stands for this setting: from CC(C)(C)OC(=O)NC[C@H](N)C(=O)NCC(=O)N[C@@H](CNC(=O)c1cnc2ccccc2n1)C(=O)N[C@@H](CNC(=O)c1cnc2ccccc2n1)C(=O)NCC(=O)NCC(=O)N[C@@H](CC(=O)O)C(N)=O, 22-membered ring.
The mark [4] stands for this setting: from CC(C)(C)OC(=O)NC[C@H](N)C(=O)N[C@@H](CNC(=O)c1cnc2ccccc2n1)C(=O)NCC(=O)NCC(=O)N[C@@H](CNC(=O)c1cnc2ccccc2n1)C(=O)NCC(=O)N[C@@H](CC(=O)O)C(N)=O, 22-membered ring.
The mark [5] stands for this setting: from CC(C)(C)OC(=O)NC[C@H](N)C(=O)NCC(=O)N[C@@H](CNC(=O)c1cnc2ccccc2n1)C(=O)NCC(=O)N[C@@H](CNC(=O)c1cnc2ccccc2n1)C(=O)N[C@@H](CNC(=O)c1cnc2ccccc2n1)C(=O)N[C@@H](CC(=O)O)C(N)=O, 22-membered ring.
Setting [6] is: from CC(C)(C)OC(=O)NC[C@H](N)C(=O)N[C@@H](CNC(=O)c1cnc2ccccc2n1)C(=O)NCC(=O)N[C@@H](CNC(=O)c1cnc2ccccc2n1)C(=O)NCC(=O)N[C@@H](CNC(=O)c1cnc2ccccc2n1)C(=O)N[C@@H](CC(=O)O)C(N)=O, 22-membered ring.
[7] abbreviates: from CC(C)(C)OC(=O)NC[C@H](N)C(=O)N[C@@H](CNC(=O)c1cnc2ccccc2n1)C(=O)NCC(=O)N[C@@H](CNC(=O)c1cnc2ccccc2n1)C(=O)NCC(=O)NCC(=O)N[C@@H](CC(=O)O)C(N)=O, 22-membered ring.
The mark [8] stands for this setting: from CC(C)(C)OC(=O)NC[C@H](N)C(=O)NCC(=O)NCC(=O)N[C@@H](CNC(=O)c1cnc2ccccc2n1)C(=O)NCC(=O)N[C@@H](CNC(=O)c1cnc2ccccc2n1)C(=O)N[C@@H](CC(=O)O)C(N)=O, 22-membered ring.
Where [9] appears, read: from CC(C)(C)OC(=O)NC[C@H](N)C(=O)NCC(=O)NCC(=O)N[C@@H](CNC(=O)c1cnc2ccccc2n1)C(=O)N[C@@H](CNC(=O)c1cnc2ccccc2n1)C(=O)NCC(=O)N[C@@H](CC(=O)O)C(N)=O, 22-membered ring.
Setting [10] is: from CC(C)(C)OC(=O)NC[C@H](N)C(=O)N[C@@H](CNC(=O)c1cnc2ccccc2n1)C(=O)N[C@@H](CNC(=O)c1cnc2ccccc2n1)C(=O)NCC(=O)N[C@@H](CNC(=O)c1cnc2ccccc2n1)C(=O)NCC(=O)N[C@@H](CC(=O)O)C(N)=O, 22-membered ring.

With `NC[C@@H]1NC(=O)C[C@@H](C(N)=O)NC(=O)[C@H](CNC(=O)c2cnc3ccccc3n2)NC(=O)CNC(=O)[C@H](CNC(=O)c2cnc3ccccc3n2)NC(=O)[C@H](CNC(=O)c2cnc3ccccc3n2)NC(=O)CNC1=O`, under setting [1], the ring closure, product found was determined as 0 and the ring closure, conversion by HPLC was < 34.

With `NC[C@@H]1NC(=O)C[C@@H](C(N)=O)NC(=O)CNC(=O)[C@H](CNC(=O)c2cnc3ccccc3n2)NC(=O)[C@H](CNC(=O)c2cnc3ccccc3n2)NC(=O)[C@H](CNC(=O)c2cnc3ccccc3n2)NC(=O)CNC1=O`, under setting [2], the ring closure, product found is 1 and the ring closure, conversion by HPLC was determined as 79. Take `NC[C@@H]1NC(=O)C[C@@H](C(N)=O)NC(=O)CNC(=O)CNC(=O)[C@H](CNC(=O)c2cnc3ccccc3n2)NC(=O)[C@H](CNC(=O)c2cnc3ccccc3n2)NC(=O)CNC1=O`: under setting [3], the ring closure, product found came out at 1 and the ring closure, conversion by HPLC came out at 69. With `NC[C@@H]1NC(=O)C[C@@H](C(N)=O)NC(=O)CNC(=O)[C@H](CNC(=O)c2cnc3ccccc3n2)NC(=O)CNC(=O)CNC(=O)[C@H](CNC(=O)c2cnc3ccccc3n2)NC1=O`, under setting [4], the ring closure, product found was found to be 1 and the ring closure, conversion by HPLC is 53. As for `NC[C@@H]1NC(=O)C[C@@H](C(N)=O)NC(=O)[C@H](CNC(=O)c2cnc3ccccc3n2)NC(=O)[C@H](CNC(=O)c2cnc3ccccc3n2)NC(=O)CNC(=O)[C@H](CNC(=O)c2cnc3ccccc3n2)NC(=O)CNC1=O`, under setting [5], the ring closure, product found came to 0 and the ring closure, conversion by HPLC is < 39. On to `NC[C@@H]1NC(=O)C[C@@H](C(N)=O)NC(=O)CNC(=O)[C@H](CNC(=O)c2cnc3ccccc3n2)NC(=O)CNC(=O)[C@H](CNC(=O)c2cnc3ccccc3n2)NC1=O` [H-Dap(Boc)-Dap(Qxc)-Gly-Dap(Qxc)-Gly-Asp(OH)-NH-Rink resin], for which the ring closure, product found (from CC(C)(C)OC(=O)NC[C@H](N)C(=O)N[C@@H](CNC(=O)c1cnc2ccccc2n1)C(=O)NCC(=O)N[C@@H](CNC(=O)c1cnc2ccccc2n1)C(=O)NCC(=O)N[C@@H](CC(=O)O)C(N)=O, 19-membered ring) came out at 1. Consider `NC[C@@H]1NC(=O)C[C@@H](C(N)=O)NC(=O)[C@H](CNC(=O)c2cnc3ccccc3n2)NC(=O)CNC(=O)[C@H](CNC(=O)c2cnc3ccccc3n2)NC(=O)CNC(=O)[C@H](CNC(=O)c2cnc3ccccc3n2)NC1=O`, for which, under setting [6], the ring closure, product found was 1 and the ring closure, conversion by HPLC was found to be 24. Turning to `NC[C@@H]1NC(=O)C[C@@H](C(N)=O)NC(=O)CNC(=O)CNC(=O)[C@H](CNC(=O)c2cnc3ccccc3n2)NC(=O)CNC(=O)[C@H](CNC(=O)c2cnc3ccccc3n2)NC1=O`, under setting [7], the ring closure, product found was found to be 1 and the ring closure, conversion by HPLC was 39. With `NC[C@@H]1NC(=O)C[C@@H](C(N)=O)NC(=O)[C@H](CNC(=O)c2cnc3ccccc3n2)NC(=O)CNC(=O)[C@H](CNC(=O)c2cnc3ccccc3n2)NC(=O)CNC(=O)CNC1=O`, under setting [8], the ring closure, product found is 1 and the ring closure, conversion by HPLC is 76. Consider `NC[C@@H]1NC(=O)C[C@@H](C(N)=O)NC(=O)CNC(=O)[C@H](CNC(=O)c2cnc3ccccc3n2)NC(=O)[C@H](CNC(=O)c2cnc3ccccc3n2)NC(=O)CNC(=O)CNC1=O`, for which, under setting [9], the ring closure, product found was 1 and the ring closure, conversion by HPLC is 60.

Turning to `NC[C@@H]1NC(=O)C[C@@H](C(N)=O)NC(=O)CNC(=O)[C@H](CNC(=O)c2cnc3ccccc3n2)NC(=O)CNC(=O)[C@H](CNC(=O)c2cnc3ccccc3n2)NC(=O)[C@H](CNC(=O)c2cnc3ccccc3n2)NC1=O`, under setting [10], the ring closure, product found stood at 1 and the ring closure, conversion by HPLC was found to be 49.
